Columns and labels:
Test in all cases: biochemical
Type in all cases: binding
panel of 442 kinases [1] = target: T1, panel of 442 kinases (Homo sapiens, UniProt Q02750); settings: kinase MEK1; for remaining activity at 1 µM: read-out: % of control at 1 µM
T1 construct: purchased Ambit Biosciences (scanMAXX KINOMEscan)

panel of 442 kinases [2] = target: T2, panel of 442 kinases (Homo sapiens, UniProt Q00537); settings: kinase PCTK2; for remaining activity at 1 µM: read-out: % of control at 1 µM
T2 construct: purchased Ambit Biosciences (scanMAXX KINOMEscan)
T2 sequence (Q00537 whole entry): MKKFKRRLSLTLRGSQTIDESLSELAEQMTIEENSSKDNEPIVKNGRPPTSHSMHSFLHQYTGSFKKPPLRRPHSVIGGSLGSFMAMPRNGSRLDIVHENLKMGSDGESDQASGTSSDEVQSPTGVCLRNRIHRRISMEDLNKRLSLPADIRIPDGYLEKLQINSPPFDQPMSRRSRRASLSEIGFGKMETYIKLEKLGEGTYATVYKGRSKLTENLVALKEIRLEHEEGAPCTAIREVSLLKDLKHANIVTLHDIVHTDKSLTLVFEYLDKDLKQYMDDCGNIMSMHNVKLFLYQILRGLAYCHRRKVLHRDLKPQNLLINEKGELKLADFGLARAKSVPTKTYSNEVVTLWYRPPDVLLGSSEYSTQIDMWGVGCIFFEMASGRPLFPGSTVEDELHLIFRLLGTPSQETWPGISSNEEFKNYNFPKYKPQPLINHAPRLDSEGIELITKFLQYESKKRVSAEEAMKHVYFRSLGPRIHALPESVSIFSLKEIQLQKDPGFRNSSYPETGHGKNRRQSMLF

panel of 442 kinases [3] = target: T3, panel of 442 kinases (Homo sapiens, UniProt P36888, N841I); settings: kinase FLT3(N841I); for remaining activity at 1 µM: read-out: % of control at 1 µM
T3 construct: purchased Ambit Biosciences (scanMAXX KINOMEscan)
T3 sequence (P36888 27-993 N841I): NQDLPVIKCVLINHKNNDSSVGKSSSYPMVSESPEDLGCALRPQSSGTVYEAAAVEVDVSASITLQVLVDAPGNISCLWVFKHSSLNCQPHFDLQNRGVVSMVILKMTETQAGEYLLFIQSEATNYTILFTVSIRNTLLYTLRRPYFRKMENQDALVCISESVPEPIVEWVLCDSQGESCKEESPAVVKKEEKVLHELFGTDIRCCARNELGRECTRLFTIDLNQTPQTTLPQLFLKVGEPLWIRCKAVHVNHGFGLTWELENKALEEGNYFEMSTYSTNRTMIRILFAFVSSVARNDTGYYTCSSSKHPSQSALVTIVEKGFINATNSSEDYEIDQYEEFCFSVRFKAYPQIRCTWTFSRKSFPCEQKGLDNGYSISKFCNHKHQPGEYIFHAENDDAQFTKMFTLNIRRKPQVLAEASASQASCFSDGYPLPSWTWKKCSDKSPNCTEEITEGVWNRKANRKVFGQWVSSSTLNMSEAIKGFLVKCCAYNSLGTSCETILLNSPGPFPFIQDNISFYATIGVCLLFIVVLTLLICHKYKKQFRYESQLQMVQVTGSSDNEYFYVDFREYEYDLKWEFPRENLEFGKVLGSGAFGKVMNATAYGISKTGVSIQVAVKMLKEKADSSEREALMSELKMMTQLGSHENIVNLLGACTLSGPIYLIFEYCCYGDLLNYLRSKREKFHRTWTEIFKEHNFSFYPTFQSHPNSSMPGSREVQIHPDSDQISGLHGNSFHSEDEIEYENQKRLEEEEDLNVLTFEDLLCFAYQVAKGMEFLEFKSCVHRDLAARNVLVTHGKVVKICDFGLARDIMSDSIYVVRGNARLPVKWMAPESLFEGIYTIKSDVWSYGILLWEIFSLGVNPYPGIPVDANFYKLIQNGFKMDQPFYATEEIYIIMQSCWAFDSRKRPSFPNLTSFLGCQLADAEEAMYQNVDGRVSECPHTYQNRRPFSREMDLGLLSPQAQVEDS

panel of 442 kinases [4] = target: T4, panel of 442 kinases (Homo sapiens, UniProt P54762); settings: EPHB1; for remaining activity at 1 µM: read-out: % of control at 1 µM
T4 construct: purchased Ambit Biosciences (scanMAXX KINOMEscan)
T4 sequence (P54762 18-984): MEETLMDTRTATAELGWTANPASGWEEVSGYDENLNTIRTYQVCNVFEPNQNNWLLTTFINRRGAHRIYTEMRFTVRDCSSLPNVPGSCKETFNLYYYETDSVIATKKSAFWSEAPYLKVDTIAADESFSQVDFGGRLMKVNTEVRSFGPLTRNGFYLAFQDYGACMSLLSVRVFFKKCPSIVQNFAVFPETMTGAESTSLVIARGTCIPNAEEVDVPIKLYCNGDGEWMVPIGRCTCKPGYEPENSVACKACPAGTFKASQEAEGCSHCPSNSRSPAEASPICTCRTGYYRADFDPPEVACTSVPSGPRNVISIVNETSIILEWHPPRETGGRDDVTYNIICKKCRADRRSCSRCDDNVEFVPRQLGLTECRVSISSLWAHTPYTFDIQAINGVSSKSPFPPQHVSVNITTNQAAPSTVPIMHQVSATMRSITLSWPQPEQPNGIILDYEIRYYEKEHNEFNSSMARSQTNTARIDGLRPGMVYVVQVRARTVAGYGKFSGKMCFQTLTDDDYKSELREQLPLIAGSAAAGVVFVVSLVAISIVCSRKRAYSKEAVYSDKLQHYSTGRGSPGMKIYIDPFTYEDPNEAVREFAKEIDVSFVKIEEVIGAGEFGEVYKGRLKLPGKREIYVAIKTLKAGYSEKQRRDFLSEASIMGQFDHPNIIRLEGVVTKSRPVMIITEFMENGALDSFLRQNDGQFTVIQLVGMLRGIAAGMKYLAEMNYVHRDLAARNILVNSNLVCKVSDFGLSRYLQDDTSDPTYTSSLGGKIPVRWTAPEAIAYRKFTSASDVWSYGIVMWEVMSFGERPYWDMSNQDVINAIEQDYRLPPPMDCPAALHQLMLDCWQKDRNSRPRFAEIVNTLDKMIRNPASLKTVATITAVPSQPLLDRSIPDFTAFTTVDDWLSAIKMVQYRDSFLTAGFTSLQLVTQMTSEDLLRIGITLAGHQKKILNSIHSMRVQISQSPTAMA

panel of 442 kinases [5] = target: T5, panel of 442 kinases (Homo sapiens, UniProt Q9UPZ9); settings: kinase ICK; for remaining activity at 1 µM: read-out: % of control at 1 µM
T5 construct: purchased Ambit Biosciences (scanMAXX KINOMEscan)
T5 sequence (Q9UPZ9 1-632): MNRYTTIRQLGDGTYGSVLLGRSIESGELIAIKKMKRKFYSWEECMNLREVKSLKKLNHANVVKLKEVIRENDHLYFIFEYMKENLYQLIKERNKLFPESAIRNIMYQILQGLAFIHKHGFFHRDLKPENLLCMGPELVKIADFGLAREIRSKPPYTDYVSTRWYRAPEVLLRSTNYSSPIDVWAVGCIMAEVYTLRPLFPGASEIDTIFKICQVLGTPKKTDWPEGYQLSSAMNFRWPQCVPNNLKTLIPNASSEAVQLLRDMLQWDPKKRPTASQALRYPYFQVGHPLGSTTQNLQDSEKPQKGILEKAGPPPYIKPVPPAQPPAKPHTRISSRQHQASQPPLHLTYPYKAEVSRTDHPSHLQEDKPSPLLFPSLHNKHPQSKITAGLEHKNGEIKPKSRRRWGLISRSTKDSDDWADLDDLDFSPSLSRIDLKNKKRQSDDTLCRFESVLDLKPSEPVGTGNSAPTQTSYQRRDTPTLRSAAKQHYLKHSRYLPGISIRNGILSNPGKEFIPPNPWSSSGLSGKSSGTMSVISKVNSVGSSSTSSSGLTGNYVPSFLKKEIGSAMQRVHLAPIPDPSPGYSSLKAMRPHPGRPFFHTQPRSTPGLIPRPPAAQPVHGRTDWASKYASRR

[6] = 10 µM, read-out: % of control at 10 µM

T1 sequence (Q02750 whole entry): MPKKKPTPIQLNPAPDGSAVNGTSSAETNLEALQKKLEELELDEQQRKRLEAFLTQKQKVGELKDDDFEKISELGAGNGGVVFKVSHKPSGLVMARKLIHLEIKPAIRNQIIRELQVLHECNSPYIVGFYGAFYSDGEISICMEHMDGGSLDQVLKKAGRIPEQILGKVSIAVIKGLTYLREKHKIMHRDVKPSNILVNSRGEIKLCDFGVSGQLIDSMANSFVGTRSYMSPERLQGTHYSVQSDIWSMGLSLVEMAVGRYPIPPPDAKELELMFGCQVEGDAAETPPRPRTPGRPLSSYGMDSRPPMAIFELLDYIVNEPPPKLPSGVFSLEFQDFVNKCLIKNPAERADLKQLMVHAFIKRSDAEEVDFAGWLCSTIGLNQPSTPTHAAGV

SMILES	remaining activity at 1 µM (panel of 442 kinases [1]) [%]	remaining activity at 10 µM (panel of 442 kinases [1]; [6]) [%]	remaining activity at 1 µM (panel of 442 kinases [2]) [%]	remaining activity at 10 µM (panel of 442 kinases [2]; [6]) [%]	remaining activity at 1 µM (panel of 442 kinases [3]) [%]	remaining activity at 10 µM (panel of 442 kinases [3]; [6]) [%]	remaining activity at 1 µM (panel of 442 kinases [4]) [%]	remaining activity at 10 µM (panel of 442 kinases [4]; [6]) [%]	remaining activity at 1 µM (panel of 442 kinases [5]) [%]	remaining activity at 10 µM (panel of 442 kinases [5]; [6]) [%]
Nc1cc(C(F)(F)F)c(-c2cc(N3CCOCC3)nc(N3CCOCC3)n2)cn1 [Buparlisib]	100	100	87	69	86	97	88	100	92	100
Cn1c(=O)n(-c2ccc(C(C)(C)C#N)cc2)c2c3cc(-c4cnc5ccccc5c4)ccc3ncc21 [Dactolisib, 2-methyl-2-[4-(3-methyl-2-oxo-8-quinolin-3-yl-2,3-dihydroimidazo[4,5-c]quinolin-1-yl)-phenyl] propionitrile]	94		100		24		100		68	
COc1ncc(-c2ccc3nccc(-c4ccnnc4)c3c2)cc1NS(=O)(=O)c1ccc(F)cc1F [Omipalisib]	100		100		70		100		87	
FC(F)c1nc2ccccc2n1-c1nc(N2CCOCC2)nc(N2CCOCC2)n1 [ZSTK474, 2-(difluoromethyl)-1-[4,6-di(4-morpholinyl)-1,3,5-triazin-2-yl]-1H-benzimidazole]	100		100		90		99		89	
